Earlier results on 4 molecules are cited in patent publication US7514484B2, “Aqueous dispersion of polytetrafluoroethylene and process for its production” (Asahi Glass Company, Limited, priority 2005, dated 2009).

Like-named read-outs stand apart in the source and are kept apart here.

The mark [1] stands for this setting: additives of Table 3, value of the corresponding acid.
Where [2] appears, read: carboxylic acid corresponding to the salt of formula (4).

What is called pKa is the negative logarithm of the acid dissociation constant. As to ammonium fluorophenyl acetate [(f)], under setting [1], the pKa is given as 4.3. `CCCCCCCCCCCC(=O)O` [lauric acid]: the pKa under setting [2] is 4.6.

Regarding `CCCCCCCCCCCC(=O)O.N` [(d), ammonium laurate], the pKa under setting [1] is 4.6. `O=C(O)C(F)c1ccccc1` (stereo not shown) [fluorophenyl acetic acid]: under setting [2], the pKa is given as 4.3.
